Columns and labels:
mung beans = assay: Adventitious root growth of mung beans; assay type: in vivo; conditions: two weeks after treatment; 50 ppm each; FIGS. 9 and 10
red globe = assay: Yield of red globe grapes, each treatment carried out two times consecutively; assay type: in vivo, Vitis Vinifera sp.; conditions: two treatments 40 days apart, LPE 50 ppm, potassium silicate 100 ppm, 200 GPA, FIG. 3
Protocol: (§1) The grape was selected as a test plant. Crimson and red globe (scientific name: Vitis Vinifera sp.) were used as the grape.
(§2) The control group 2 is the case where they are treated with Ethrel, which is widely sold and used as a plant growth regulator, in an amount of 400 ppm, 100 GPA.
(§3) The control group 3 is such that it is treated with the solution of LPE 10% in an amount of 50 ppm, 200 GPA.
(§4) The solutions were injected in a spray manner, except the control groups 1 and 5. The each treatment was carried out for an area of 5 acres. All treatments were carried out with a typical orchard air blast sprayer.
(§5) All harvests after the each treatment were carried out by the workers belonging to the farm according to the ordinary harvesting method, so that the grapes were harvested in accordance with a commercial standard. The number and grade of the box harvested from the respective treatment row were recorded for each harvest day, with regard to the each treatment.
For the red globe which is cultivated in California, the above 6 treatments were successively carried out two times.

crimson [1] = assay: Yield of crimson grapes, each treatment carried out two times consecutively; assay type: in vivo, Vitis Vinifera sp.; conditions: two treatments 40 days apart, LPE 50 ppm, potassium silicate 100 ppm, 200 GPA, Ethrel 400 ppm, 100 GPA, FIG. 1
Protocol: as §1, §2, §3, §4, §5
For the crimson which is cultivated in California, the above 6 treatments were successively carried out two times.

protoplast of corn root = assay: Reactive oxygen species (ROS) by DCF-DA flow cytometry; assay type: cell-based, Zea mays L; conditions: incubated 5 minutes
Protocol: The corns (Zea mays L) were used according to the following procedures: seeds of Golden cross Bantam were sufficiently washed in the flowing water and immersed in the distilled water for 24 hours. Then, the seeds were arranged in a line on the cultivation dish where the paper wetted with the distilled water was put on the cultivation dish and the ventral side of the seeds was forced to touch with the dish bottom. The seeds were covered with the wetted paper by two folds. […] The individuals having the root length of 1.5-2 cm were selected and used in this experiment. The protoplast of the corn root etiolated was modified according to the following method (Sheen J, Metabolic repression of transcription in higher plants, Plant Cell, 1990 October: 2(10):1027-38). In other words, the protoplast was separated from the two-day etiolated young corn plant. […] The compound was converted into […] by the esterase in the cell, which was in turn oxidized by the reactive oxygen species such as H2O2 and thus changed into 2′, 7′-dichlorofluorescine (DCF) having the highest fluorescence. […]

[2] = system: Muscat Bailey A (late-season cv.) grapes; assay: Coloring development of grape fruit; assay type: in vivo; conditions: two weeks after treatment; LPE 50 ppm, sodium silicate 100 ppm, 200 GPA; FIGS. 7a to 7c
Text: Grapes used in the experiment were Muscat Bailey A (late-season cv.). […] [table]

crimson [3] = assay: Yield of crimson grapes, single application; assay type: in vivo, Vitis Vinifera sp.; conditions: one treatment, LPE 50 ppm, potassium silicate 100 ppm, 200 GPA, FIG. 2
Protocol: as §1
The each treatment was carried out for an area of 5 acres. All treatments were carried out with a typical orchard air blast sprayer.
as §5
For the crimson which is cultivated in California, the above 6 treatments were carried out. The treatment was carried out only one time.

[4] = system: Muscat Bailey A (late-season cv.) grapes; assay: Color of grape leaves; assay type: in vivo; conditions: two weeks after treatment; LPE 50 ppm, sodium silicate 100 ppm, 200 GPA; FIGS. 8a to 8c
Protocol: Grapes used in the experiment were Muscat Bailey A (late-season cv.). […] [table] Meanwhile, an observation after two weeks was also carried out for colors of grape leaves.

[5] = system: Muscat Bailey A (late-season cv.) grapes; assay: Preservation stability of the grape fruit; assay type: in vivo; set-up: unit not given here; conditions: preserved at room temperature for 14 days
Text: Grapes used in the experiment were Muscat Bailey A (late-season cv.).
The grapes treated in the Example 3 were harvested, and preserved at a room temperature for 14 days. Then, calculation has been done for a ratio of complete grape fruits that were not decayed or no bruise.

lysophosphatidylethanolamine [LPE]
length of the adventitious roots (mung beans): the length thereof is short | number of the adventitious roots (mung beans): large number | increase of yield as compared to the control groups 1 and 5, which were not treated (red globe): about 22 boxes | yield of the grapes (ranking of groups) (crimson [1]): smaller than those of the control groups 1 and 5 which were not treated | increase amount of ROS (protoplast of corn root; LPE 20 ppm (combination: + sodium silicate 40 ppm)): 200-300% | increase amount of ROS (protoplast of corn root; LPE 50 ppm (combination: + sodium silicate 100 ppm)): 200-300% | colors of grapes [2]: excellent in the order of the experimental group 4, the control group 11, and the control group 10 | yield (crimson [3]): 96.3 | colors of grape leaves [4]: many leaves become discolored to yellow | ratio of complete grape fruits that were not decayed or no bruise ([5]; Average of 6 repeats): 6.9 | ratio of complete grape fruits that were not decayed or no bruise ([5]; Repeat 1): 14.2 | ratio of complete grape fruits that were not decayed or no bruise ([5]; Repeat 2): 15.6 | ratio of complete grape fruits that were not decayed or no bruise ([5]; Repeat 3): 4.0 | ratio of complete grape fruits that were not decayed or no bruise ([5]; Repeat 4): 0 | ratio of complete grape fruits that were not decayed or no bruise ([5]; Repeat 5): 3.7 | ratio of complete grape fruits that were not decayed or no bruise ([5]; Repeat 6): 3.7

From patent US20100255990A1, “METHOD, COMPOSITION AND KIT FOR PROMOTIONG PLANT GROWTH AND IMPROVING PLANT PRESERVATION” (Doosan Corporation, priority 2005, published 2010)
